The target in the assay is EGFR (UniProt P00533). Particulars: concentration not given here.
EGFR, sequence (P00533 whole entry, looked up): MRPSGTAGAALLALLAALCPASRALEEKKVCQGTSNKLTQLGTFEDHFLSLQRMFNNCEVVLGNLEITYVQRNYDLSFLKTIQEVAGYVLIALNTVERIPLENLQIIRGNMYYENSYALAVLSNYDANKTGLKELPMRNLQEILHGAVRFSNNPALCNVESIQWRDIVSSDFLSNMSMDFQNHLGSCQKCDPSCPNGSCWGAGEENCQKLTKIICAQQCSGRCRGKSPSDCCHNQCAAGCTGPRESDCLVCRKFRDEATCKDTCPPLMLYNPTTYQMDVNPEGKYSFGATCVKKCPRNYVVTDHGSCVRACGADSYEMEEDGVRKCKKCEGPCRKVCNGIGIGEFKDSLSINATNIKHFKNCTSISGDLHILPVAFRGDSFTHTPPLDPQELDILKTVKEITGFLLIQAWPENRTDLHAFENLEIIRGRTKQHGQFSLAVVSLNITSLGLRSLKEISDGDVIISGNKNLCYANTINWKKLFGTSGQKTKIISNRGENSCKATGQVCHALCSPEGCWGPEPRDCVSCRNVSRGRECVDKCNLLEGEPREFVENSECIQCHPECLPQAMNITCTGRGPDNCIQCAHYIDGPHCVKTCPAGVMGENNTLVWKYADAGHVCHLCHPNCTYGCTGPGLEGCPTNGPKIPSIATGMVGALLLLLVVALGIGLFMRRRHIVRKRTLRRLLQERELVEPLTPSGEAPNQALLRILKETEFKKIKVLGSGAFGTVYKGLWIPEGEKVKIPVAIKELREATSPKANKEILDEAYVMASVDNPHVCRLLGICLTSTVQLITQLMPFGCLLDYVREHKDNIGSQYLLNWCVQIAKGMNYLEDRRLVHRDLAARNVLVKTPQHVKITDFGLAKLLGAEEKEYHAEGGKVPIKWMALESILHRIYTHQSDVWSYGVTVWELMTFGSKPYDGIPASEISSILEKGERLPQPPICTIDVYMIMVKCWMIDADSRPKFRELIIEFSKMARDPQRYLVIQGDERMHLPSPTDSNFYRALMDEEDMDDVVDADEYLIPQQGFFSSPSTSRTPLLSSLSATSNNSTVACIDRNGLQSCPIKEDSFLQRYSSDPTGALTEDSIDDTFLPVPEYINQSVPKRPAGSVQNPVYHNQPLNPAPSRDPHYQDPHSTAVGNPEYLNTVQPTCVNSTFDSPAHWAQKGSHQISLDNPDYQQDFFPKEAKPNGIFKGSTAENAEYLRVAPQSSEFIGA
As to `C=CC(=O)Nc1ccc(OC)c(C(=O)Nc2cccc(Oc3ccccc3)c2)c1`, the inhibition (commonly the drop in the measured response relative to a control, in per cent) turned out to be 1.59%.
In the case of `C=CC(=O)Nc1ccc(OC)c(C(=O)Nc2cccc(C(O)c3ccccc3)c2)c1` (centres undefined), the inhibition stood at 5.84%.
The molecule `CCC(=O)Nc1ccc(O)c(C(=O)Nc2cccc(C(=O)N(CC)CC)c2)c1` registered an inhibition of 46.6%.
For `CCC(=O)Nc1ccc(O)c(C(=O)Nc2ccc(Oc3ccccc3)cc2)c1` the value was 48.5%.

The record behind these values is the Kinase Knowledgebase extract (Sharma et al. 2016).
